Test results published in BindingDB's records for doi:10.1016/j.bmc.2010.01.055 (Chinese Academy of Sciences, 2010).

Molecular target: Receptor-type tyrosine-protein phosphatase alpha (PTPRA) (Homo sapiens) (UniProt P18433)
Assay: Inhibition of PTPalpha expressed in Escherichia coli BL21 (DE3) after 10 mins by spectrophotometry

Receptor-type tyrosine-protein phosphatase alpha (PTPRA) (Homo sapiens), sequence (P18433 whole entry, looked up): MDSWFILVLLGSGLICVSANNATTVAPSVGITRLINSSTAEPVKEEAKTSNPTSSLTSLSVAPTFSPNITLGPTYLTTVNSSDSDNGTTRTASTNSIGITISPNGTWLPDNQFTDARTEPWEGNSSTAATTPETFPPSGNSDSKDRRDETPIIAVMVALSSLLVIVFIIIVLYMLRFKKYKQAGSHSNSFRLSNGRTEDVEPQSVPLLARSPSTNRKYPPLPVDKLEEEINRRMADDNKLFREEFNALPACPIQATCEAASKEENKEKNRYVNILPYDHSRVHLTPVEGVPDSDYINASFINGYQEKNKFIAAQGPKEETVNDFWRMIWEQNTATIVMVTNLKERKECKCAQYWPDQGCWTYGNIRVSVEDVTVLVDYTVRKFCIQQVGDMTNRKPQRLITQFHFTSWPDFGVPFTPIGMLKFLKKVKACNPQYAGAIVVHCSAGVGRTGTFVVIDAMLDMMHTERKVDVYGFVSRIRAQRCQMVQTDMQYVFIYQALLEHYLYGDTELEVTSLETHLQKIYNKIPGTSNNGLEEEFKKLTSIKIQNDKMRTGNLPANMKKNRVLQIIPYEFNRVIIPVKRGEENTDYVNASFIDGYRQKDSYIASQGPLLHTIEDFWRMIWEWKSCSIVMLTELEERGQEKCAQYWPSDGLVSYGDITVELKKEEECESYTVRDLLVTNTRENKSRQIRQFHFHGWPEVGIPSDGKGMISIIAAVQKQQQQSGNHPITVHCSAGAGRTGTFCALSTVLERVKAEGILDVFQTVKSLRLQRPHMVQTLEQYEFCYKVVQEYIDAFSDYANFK

| Structure (SMILES) | IC50 [µM] |
| --- | --- |
| CC(C)OC(=O)c1c(-c2ccc(-c3ccc(Cl)cc3)cc2)csc1NC(=O)C1C2C=CC(C2)C1C(=O)O (centres undefined) [2-[(3-Carboxy-bicyclo[2.2.1]hept-5-ene-2-carbonyl)-amino]-4-(4'-chloro-biphenyl-4-yl)-thiophene-3-carboxylicacid isopropyl ester] | > 100 |
| CC(C)OC(=O)c1c(-c2ccc(-c3ccccc3)cc2)csc1NC(=O)C1C2C=CC(C2)C1C(=O)O (centres undefined) [4-Biphenyl-4-yl-2-[(3-carboxy-bicyclo[2.2.1]hept-5-ene-2-carbonyl)-amino]-thiophene-3-carboxylic acid isopropylester] | > 100 |
| CCc1oc2cc(S(=O)(=O)Nc3nccs3)ccc2c1C(=O)c1cc(Br)c(O)c(Br)c1 [3-(3,5-dibromo-4-hydroxybenzoyl)-2-ethyl-N-(thiazol-2-yl)benzofuran-6-sulfonamide] | > 100 |
| CCOC(=O)c1c(-c2ccc(-c3ccc(F)c(Cl)c3)cc2)csc1NC(=O)c1ccccc1C(=O)O [2-(2-Carboxy-benzoylamino)-4-(30-chloro-40-fluorobiphenyl-4-yl)-thiophene-3-carboxylic acid ethyl ester] | 23.1 |
